Measured values published in patent publication US20120220564A1, “SELECTIVE CALCIUM CHANNEL MODULATORS” (Zalicus Pharmaceuticals Ltd., priority 2009, published 2012).

Key:
α1H (CaV 3.2) = target: T1, α1H (CaV 3.2) (Homo sapiens, UniProt O95180); test: T-type calcium channel block, whole cell patch clamp; type: cell-based; details: HEK cells, mainly non-inactivated protocol; values above 10,000 nM represented as 10000
T1 construct: expressed in transfected cells; host or cells: HEK 293
Procedure: (§1) T-type calcium channel blocking activity was assayed in human embryonic kidney cells, HEK 293 (Invitrogen), stably transfected with the T-type calcium channel subunits. Briefly, cells were cultured in Dulbecco's modified eagle medium (DMEM) supplemented with 10% fetal bovine serum, 200 U/ml penicillin, and 0.2 mg/mL streptomycin at 37° C. with 5% CO2. At 85% confluency, cells were split with 0.25% trypsin/1 mM EDTA and plated at 10% confluency on glass coverslips. At 12 hours, the medium was replaced, and the cells stably transfected using a standard calcium phosphate protocol and the appropriate calcium channel cDNA's. Fresh DMEM was supplied, and the cells transferred to 28° C./5% CO2. Cells were incubated for 1 to 2 days prior to whole cell recording.
(§2) Standard patch-clamp techniques were employed to identify blockers of T-type currents. Briefly, previously described HEK cell lines stably expressing human α1G, α1H and α1I T-type channels were used for all the recordings (passage #: 4-20, 37° C., 5% CO2). Whole cell patch clamp experiments were performed using an Axopatch 200B amplifier (Axon Instruments, Burlingame, Calif.) linked to a personal computer equipped with pCLAMP software. Data were analyzed using Clampfit (Axon Instruments) and SigmaPlot 4.0 (Jandel Scientific). To obtain T-type currents, plastic dishes containing semi-confluent cells were positioned on the stage of a ZEISS AXIOVERT S100 microscope after replacing the culture medium with external solution (Table 2). Whole-cell patches were obtained using pipettes (borosilicate glass with filament, O.D.: 1.5 mm, I.D.: 0.86 mm, 10 cm length), fabricated on a SUTTER P-97 puller with resistance values of ˜5 MΩ (Table 3).
(§3) T-type currents were reliably obtained by using two voltage protocols:
(§4) In the non-inactivating protocol, the holding potential is set at −110 mV and with a pre-pulse at −100 mV for 1 second prior to the test pulse at −40 mV for 50 ms. In the inactivation protocol, the pre-pulse is at approximately −85 mV for 1 second, which inactivates about 15% of the T-type channels (Scheme 1).
(§5) Test compounds were dissolved in external solution, 0.1-0.01% DMSO. After ˜10 minutes rest, they were applied by gravity close to the cell using a WPI microfil tubing. The “non-inactivated” pre-pulse was used to examine the resting block of a compound. The “inactivated” protocol was employed to study voltage-dependent block. However, the initial data shown below were mainly obtained using the non-inactivated protocol only. IC50 values are shown for various compounds of the invention in Table 4. […] In Table 4, empty cells indicate that inhibition by the compound was not detected.

α1G (CaV 3.1) = target: T2, α1G (CaV 3.1) (Homo sapiens, UniProt O43497); test: as above; type: cell-based; details: HEK cells, mainly non-inactivated protocol; values above 10,000 nM represented as 10000
T2 construct: expressed in transfected cells; host or cells: HEK 293
T2 sequence (O43497 whole entry): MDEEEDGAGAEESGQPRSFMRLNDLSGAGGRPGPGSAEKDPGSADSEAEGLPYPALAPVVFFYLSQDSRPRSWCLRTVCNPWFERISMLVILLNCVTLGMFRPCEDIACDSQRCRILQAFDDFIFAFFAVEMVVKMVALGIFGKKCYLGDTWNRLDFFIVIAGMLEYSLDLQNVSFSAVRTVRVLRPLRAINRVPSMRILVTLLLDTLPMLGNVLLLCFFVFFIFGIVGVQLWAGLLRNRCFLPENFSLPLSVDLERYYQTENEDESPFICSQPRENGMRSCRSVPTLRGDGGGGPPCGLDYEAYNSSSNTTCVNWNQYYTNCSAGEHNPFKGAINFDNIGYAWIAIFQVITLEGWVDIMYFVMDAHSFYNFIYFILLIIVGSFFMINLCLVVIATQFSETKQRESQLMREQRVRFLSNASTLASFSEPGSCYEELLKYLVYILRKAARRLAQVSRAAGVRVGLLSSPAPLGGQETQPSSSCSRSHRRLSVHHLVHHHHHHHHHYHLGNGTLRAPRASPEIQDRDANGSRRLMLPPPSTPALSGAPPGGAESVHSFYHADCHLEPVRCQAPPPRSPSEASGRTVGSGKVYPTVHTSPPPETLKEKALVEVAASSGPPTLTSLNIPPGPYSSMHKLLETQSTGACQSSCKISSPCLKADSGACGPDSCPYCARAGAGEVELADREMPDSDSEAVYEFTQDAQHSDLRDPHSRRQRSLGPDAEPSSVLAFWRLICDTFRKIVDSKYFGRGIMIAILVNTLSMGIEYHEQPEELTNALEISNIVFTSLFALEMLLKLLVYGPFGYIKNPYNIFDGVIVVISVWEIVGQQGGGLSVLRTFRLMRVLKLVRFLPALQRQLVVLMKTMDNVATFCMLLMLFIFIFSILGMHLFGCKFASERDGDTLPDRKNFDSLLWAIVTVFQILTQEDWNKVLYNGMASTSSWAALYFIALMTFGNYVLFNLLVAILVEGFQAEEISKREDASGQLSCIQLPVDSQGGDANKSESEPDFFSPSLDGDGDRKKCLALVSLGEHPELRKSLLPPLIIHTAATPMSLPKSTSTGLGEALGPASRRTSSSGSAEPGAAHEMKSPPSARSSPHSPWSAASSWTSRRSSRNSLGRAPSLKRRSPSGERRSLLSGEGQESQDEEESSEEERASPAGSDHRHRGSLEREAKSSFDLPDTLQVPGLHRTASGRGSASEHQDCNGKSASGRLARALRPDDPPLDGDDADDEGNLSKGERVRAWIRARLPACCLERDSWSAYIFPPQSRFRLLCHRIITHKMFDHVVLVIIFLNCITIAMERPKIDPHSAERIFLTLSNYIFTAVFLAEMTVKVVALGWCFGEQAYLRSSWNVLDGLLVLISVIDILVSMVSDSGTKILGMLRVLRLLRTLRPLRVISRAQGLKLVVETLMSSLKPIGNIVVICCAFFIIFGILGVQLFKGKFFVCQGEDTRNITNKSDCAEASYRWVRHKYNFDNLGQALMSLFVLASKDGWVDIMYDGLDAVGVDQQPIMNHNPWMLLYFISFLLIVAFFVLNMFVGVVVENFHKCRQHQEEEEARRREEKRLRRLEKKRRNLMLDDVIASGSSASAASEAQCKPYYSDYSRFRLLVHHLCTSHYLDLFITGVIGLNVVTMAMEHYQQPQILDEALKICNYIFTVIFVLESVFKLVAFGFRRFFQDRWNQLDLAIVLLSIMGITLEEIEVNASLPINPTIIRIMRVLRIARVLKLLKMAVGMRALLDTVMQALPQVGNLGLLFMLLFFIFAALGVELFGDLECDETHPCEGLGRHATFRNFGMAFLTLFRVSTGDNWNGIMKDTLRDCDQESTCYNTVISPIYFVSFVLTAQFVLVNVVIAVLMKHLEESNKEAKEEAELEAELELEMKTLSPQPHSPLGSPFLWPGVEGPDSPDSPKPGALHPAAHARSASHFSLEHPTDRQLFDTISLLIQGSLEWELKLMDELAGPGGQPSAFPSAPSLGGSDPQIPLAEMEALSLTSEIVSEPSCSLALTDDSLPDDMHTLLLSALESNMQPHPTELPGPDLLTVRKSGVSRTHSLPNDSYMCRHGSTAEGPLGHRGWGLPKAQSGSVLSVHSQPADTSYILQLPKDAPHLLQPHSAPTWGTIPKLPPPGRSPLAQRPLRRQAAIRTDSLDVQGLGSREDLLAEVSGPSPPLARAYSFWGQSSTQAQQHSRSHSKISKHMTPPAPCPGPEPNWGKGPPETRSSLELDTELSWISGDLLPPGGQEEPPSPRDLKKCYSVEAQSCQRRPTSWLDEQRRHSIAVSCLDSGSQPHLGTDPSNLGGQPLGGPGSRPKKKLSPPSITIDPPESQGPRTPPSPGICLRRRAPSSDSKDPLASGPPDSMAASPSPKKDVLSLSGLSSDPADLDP
Procedure: as §1, §2, §3, §4, §5

T1 sequence (O95180 whole entry): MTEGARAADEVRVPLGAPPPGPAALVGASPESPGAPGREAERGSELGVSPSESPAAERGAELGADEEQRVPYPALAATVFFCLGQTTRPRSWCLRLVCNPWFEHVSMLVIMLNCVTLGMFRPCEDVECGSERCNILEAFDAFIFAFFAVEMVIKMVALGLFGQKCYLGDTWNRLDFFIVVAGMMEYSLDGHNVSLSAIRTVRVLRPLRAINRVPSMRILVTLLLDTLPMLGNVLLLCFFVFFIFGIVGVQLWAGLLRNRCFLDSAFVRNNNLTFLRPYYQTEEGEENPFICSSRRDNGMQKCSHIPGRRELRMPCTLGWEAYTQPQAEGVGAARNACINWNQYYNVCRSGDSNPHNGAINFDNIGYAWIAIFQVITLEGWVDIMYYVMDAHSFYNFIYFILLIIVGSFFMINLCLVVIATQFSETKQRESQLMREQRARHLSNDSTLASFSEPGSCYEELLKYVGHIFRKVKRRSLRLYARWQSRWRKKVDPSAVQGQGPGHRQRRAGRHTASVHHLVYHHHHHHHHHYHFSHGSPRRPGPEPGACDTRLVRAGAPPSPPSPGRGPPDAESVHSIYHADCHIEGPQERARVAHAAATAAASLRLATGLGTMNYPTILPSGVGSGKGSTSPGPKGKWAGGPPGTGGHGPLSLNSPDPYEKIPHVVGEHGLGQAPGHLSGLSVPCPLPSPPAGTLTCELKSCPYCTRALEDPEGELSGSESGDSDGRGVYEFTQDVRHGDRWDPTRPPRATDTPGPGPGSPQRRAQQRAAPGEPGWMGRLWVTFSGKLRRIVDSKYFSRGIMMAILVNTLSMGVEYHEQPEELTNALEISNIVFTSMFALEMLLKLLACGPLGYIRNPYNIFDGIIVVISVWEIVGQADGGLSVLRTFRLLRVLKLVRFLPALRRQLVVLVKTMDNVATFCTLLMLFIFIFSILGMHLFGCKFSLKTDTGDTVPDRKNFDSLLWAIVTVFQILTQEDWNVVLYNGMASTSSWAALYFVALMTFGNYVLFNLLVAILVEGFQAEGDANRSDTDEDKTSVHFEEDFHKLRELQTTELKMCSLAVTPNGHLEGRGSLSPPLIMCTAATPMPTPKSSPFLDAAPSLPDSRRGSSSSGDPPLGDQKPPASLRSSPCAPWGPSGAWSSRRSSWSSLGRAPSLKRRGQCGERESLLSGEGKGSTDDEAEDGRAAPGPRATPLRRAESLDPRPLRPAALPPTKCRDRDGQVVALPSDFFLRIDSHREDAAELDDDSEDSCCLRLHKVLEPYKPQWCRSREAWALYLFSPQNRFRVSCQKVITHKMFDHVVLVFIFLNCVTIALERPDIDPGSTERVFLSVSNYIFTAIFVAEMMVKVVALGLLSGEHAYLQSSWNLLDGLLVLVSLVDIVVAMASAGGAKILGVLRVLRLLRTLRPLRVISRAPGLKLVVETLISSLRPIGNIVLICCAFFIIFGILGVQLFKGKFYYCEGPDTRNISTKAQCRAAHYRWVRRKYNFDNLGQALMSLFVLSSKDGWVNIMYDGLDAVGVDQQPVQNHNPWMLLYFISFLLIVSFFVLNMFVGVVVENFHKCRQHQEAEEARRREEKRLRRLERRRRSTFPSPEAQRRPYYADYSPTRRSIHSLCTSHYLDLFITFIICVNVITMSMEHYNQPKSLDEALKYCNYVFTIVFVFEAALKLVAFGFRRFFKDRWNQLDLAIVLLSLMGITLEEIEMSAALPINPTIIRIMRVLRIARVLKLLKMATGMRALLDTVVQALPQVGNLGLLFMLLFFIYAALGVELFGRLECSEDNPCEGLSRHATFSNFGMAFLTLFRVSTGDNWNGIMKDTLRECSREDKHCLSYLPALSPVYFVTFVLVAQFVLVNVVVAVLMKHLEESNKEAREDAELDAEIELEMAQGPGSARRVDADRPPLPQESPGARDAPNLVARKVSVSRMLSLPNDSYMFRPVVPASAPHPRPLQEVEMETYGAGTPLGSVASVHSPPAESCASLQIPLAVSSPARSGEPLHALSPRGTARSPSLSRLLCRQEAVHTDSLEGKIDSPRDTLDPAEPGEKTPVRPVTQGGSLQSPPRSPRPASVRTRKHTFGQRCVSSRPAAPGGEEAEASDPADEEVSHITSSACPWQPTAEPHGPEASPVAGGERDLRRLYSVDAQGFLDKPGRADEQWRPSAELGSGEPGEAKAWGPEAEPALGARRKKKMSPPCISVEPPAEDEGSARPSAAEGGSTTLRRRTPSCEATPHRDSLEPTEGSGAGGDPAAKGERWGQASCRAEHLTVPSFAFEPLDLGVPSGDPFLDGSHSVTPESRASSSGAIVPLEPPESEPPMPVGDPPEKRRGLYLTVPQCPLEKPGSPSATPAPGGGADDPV

| IC50 (α1H (CaV 3.2)) [nM] | IC50 (α1G (CaV 3.1)) [nM] | SMILES |
| --- | --- | --- |
| 260 | 5290 | N[C@H]1CCCC[C@@H]1C(=O)N1CCC(CC(=O)Nc2cc(C(F)(F)F)cc(C(F)(F)F)c2)C1 (stereo partly drawn) [Compound 33, 2-(1-((1S,2S)-2-aminocyclohexanecarbonyl)pyrrolidin-3-yl)-N-(3,5-bis(trifluoromethyl)phenyl)acetamide] |
| 4390 | > 10000 | CN1CCCCC1C(=O)N1CC(CC(=O)Nc2cc(C(F)(F)F)cc(C(F)(F)F)c2)C1 (stereo not drawn) [Compound 37, N-(3,5-bis(trifluoromethyl)phenyl)-2-(1-(1-methylpiperidine-2-carbonyl)azetidin-3-yl)acetamide] |
| 2440 | 8100 | CN1CCCC(C(=O)N2CCC(CC(=O)Nc3cc(C(F)(F)F)cc(C(F)(F)F)c3)C2)C1 (stereo not drawn) [Compound 36, N-(3,5-bis(trifluoromethyl)phenyl)-2-(1-(1-methylpiperidine-3-carbonyl)pyrrolidin-3-yl)acetamide] |
| 510 | > 10000 | CN1CCCC(C(=O)N2CCC(CC(=O)Nc3cc(C(F)(F)F)cc(C(F)(F)F)c3)CC2)C1 (stereo not drawn) [Compound 1, N-(3,5-bis(trifluoromethyl)phenyl)-2-(1-(1-methylpiperidine-3-carbonyl)piperidin-4-yl)acetamide] |
| 1950 | 6020 | CN1CCCCC1C(=O)N1CCC(CC(=O)Nc2cc(C(F)(F)F)cc(C(F)(F)F)c2)C1 (stereo not drawn) [Compound 35, N-(3,5-bis(trifluoromethyl)phenyl)-2-(1-(1-methylpiperidine-2-carbonyl)pyrrolidin-3-yl)acetamide] |
| 990 | 4680 | NC1(C(=O)N2CCC(CC(=O)Nc3cc(C(F)(F)F)cc(C(F)(F)F)c3)CC2)CCCCC1 [Compound 9, 2-(1-(1-aminocyclohexanecarbonyl)piperidin-4-yl)-N-(3,5-bis(trifluoromethyl)phenyl)acetamide] |
| 100 | > 10000 | N[C@H]1CCCC[C@H]1C(=O)N1CCC(CC(=O)Nc2cc(C(F)(F)F)cc(C(F)(F)F)c2)CC1 (racemic) [Compound 5, cis-2-(1-(2-aminocyclohexanecarbonyl)piperidin-4-yl)-N-(3,5-bis(trifluoromethyl)phenyl)acetamide] |
| 710 | 8950 | N[C@H]1CCCC[C@H]1C(=O)N1CCC(CC(=O)Nc2cc(C(F)(F)F)cc(C(F)(F)F)c2)C1 (stereo partly drawn) [Compound 30, 2-(1-((1R,2S)-2-aminocyclohexanecarbonyl)pyrrolidin-3-yl)-N-(3,5-bis(trifluoromethyl)phenyl)acetamide] |
| 630 | 5660 | N[C@@H]1CCCC[C@H]1C(=O)N1CCC(CC(=O)Nc2cc(C(F)(F)F)cc(C(F)(F)F)c2)C1 (stereo partly drawn) [Compound 32, 2-(1-((1R,2R)-2-aminocyclohexanecarbonyl)pyrrolidin-3-yl)-N-(3,5-bis(trifluoromethyl)phenyl)acetamide] |

More lines, now with the values behind:

| SMILES | IC50 (α1H (CaV 3.2)) [nM] | IC50 (α1G (CaV 3.1)) [nM] |
| --- | --- | --- |
| CC(C)(CN)C(=O)N1CCC(CC(=O)Nc2cc(C(F)(F)F)cc(C(F)(F)F)c2)CC1 [Compound 45, 2-(1-(3-amino-2,2-dimethylpropanoyl)piperidin-4-yl)-N-(3,5-bis(trifluoromethyl)phenyl)acetamide] | 540 | > 10000 |
| CC(C)(CN)C(=O)N1CCC(CC(=O)Nc2cc(C(F)(F)F)cc(C(F)(F)F)c2)C1 (stereo not drawn) [Compound 47, 2-(1-(3-amino-2,2-dimethylpropanoyl)pyrrolidin-3-yl)-N-(3,5-bis(trifluoromethyl)phenyl)acetamide] | 3370 | > 10000 |
| O=C(CC1CCN(C(=O)C2CCCCN2)C1)Nc1cc(C(F)(F)F)cc(C(F)(F)F)c1 (stereo not drawn) [Compound 29, N-(3,5-bis(trifluoromethyl)phenyl)-2-(1-(piperidine-2-carbonyl)pyrrolidin-3-yl)acetamide] | 570 | 7020 |
| N[C@H]1CCCC[C@H]1C(=O)N1CC(CC(=O)Nc2cc(C(F)(F)F)cc(C(F)(F)F)c2)C1 (racemic) [Compound 41, cis-2-(1-(2-aminocyclohexanecarbonyl)azetidin-3-yl)-N-(3,5-bis(trifluoromethyl)phenyl)acetamide] | 850 | > 10000 |
| CC(C)(CN)C(=O)N1CC(CC(=O)Nc2cc(C(F)(F)F)cc(C(F)(F)F)c2)C1 [Compound 46, 2-(1-(3-amino-2,2-dimethylpropanoyl)azetidin-3-yl)-N-(3,5-bis(trifluoromethyl)phenyl)acetamide] | > 10000 | > 10000 |
| CC(C)(N)CC(=O)N1CCC(CC(=O)Nc2cc(C(F)(F)F)cc(C(F)(F)F)c2)C1 (stereo not drawn) [Compound 44, 2-(1-(3-amino-3-methylbutanoyl)pyrrolidin-3-yl)-N-(3,5-bis(trifluoromethyl)phenyl)acetamide] | 2100 | > 10000 |
| CC(C)(N)CC(=O)N1CC(CC(=O)Nc2cc(C(F)(F)F)cc(C(F)(F)F)c2)C1 [Compound 43, 2-(1-(3-amino-3-methylbutanoyl)azetidin-3-yl)-N-(3,5-bis(trifluoromethyl)phenyl)acetamide] | > 10000 | > 10000 |
| N[C@H]1CCCC[C@@H]1C(=O)N1CCC(CC(=O)Nc2cc(Br)cc(C(F)(F)F)c2)CC1 (racemic) [Compound 19, trans-2-(1-(2-aminocyclohexanecarbonyl)piperidin-4-yl)-N-(3-bromo-5-(trifluoromethyl)phenyl)acetamide] | 280 | > 10000 |
| N[C@@H]1CCCC[C@H]1C(=O)N1CCC(CNC(=O)c2cc(C(F)(F)F)cc(C(F)(F)F)c2)CC1 (racemic) [Compound 48] | 1850 | > 10000 |
| N[C@H]1CCCC[C@@H]1C(=O)N1CCC(CC(=O)Nc2cc(Cl)cc(Cl)c2)CC1 (racemic) [Compound 17, trans-2-(1-(2-aminocyclohexanecarbonyl)piperidin-4-yl)-N-(3,5-dichlorophenyl)acetamide] | 690 | > 10000 |
| N[C@H]1CCCC[C@@H]1C(=O)N1CCC(CC(=O)Nc2cccc(C(F)(F)F)c2)CC1 (racemic) [Compound 13, trans-2-(1-(2-aminocyclohexanecarbonyl)piperidin-4-yl)-N-(3-(trifluoromethyl)phenyl)acetamide] | 2670 | > 10000 |
| CC(C)(N)CC(=O)N1CCC(CC(=O)Nc2cc(C(F)(F)F)cc(C(F)(F)F)c2)CC1 [Compound 42, 2-(1-(3-amino-3-methylbutanoyl)piperidin-4-yl)-N-(3,5-bis(trifluoromethyl)phenyl)acetamide] | 570 | > 10000 |
| N[C@@H]1CCCC[C@H]1C(=O)N1CCC(CC(=O)Nc2cc(C(F)(F)F)cc(C(F)(F)F)c2)CC1 [Compound 6, 2-(1-((1R,2R)-2-aminocyclohexanecarbonyl)piperidin-4-yl)-N-(3,5-bis(trifluoromethyl)phenyl)acetamide] | 250 | > 10000 |
| N[C@H]1CCCC[C@@H]1C(=O)N1CCC(CC(=O)Nc2ccc(Br)c(C(F)(F)F)c2)CC1 (racemic) [Compound 20, trans-2-(1-(2-aminocyclohexanecarbonyl)piperidin-4-yl)-N-(4-bromo-3-(trifluoromethyl)phenyl)acetamide] | 920 | > 10000 |
| N[C@@H]1CCCC[C@H]1C(=O)N1CC(CC(=O)Nc2cc(C(F)(F)F)cc(C(F)(F)F)c2)C1 (racemic) [Compound 40, trans-2-(1-(2-aminocyclohexanecarbonyl)azetidin-3-yl)-N-(3,5-bis(trifluoromethyl)phenyl)acetamide] | 830 | > 10000 |
